One assay deals with T1, STAT5A (Homo sapiens, UniProt P42229).
T1 sequence (P42229 1-794): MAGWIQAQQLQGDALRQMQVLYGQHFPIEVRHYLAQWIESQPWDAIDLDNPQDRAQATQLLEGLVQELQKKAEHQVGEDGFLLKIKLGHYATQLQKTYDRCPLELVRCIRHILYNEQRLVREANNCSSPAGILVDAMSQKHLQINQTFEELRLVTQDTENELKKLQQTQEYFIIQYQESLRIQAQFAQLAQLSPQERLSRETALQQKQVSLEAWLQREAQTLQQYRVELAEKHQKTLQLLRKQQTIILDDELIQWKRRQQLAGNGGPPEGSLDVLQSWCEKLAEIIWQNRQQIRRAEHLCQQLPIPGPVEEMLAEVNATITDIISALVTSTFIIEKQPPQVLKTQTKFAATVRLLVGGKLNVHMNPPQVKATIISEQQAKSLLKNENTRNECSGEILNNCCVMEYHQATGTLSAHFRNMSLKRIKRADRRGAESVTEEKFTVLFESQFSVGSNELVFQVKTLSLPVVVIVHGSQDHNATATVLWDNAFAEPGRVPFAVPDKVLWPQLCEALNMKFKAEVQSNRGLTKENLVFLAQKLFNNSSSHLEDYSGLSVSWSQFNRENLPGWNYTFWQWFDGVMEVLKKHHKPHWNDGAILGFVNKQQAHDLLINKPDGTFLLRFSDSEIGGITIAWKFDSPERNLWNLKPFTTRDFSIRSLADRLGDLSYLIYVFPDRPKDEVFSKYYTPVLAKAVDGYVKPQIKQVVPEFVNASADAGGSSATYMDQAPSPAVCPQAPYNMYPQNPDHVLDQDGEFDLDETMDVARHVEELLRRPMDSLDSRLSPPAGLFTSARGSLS
The assay is described as follows: Fluorescence polarization (FP) binding assay, STAT5A. The settings on record: FP competition, 5 nM fluorescein-labeled tracer, 200 nM protein, PBS pH7.4. The procedure, abridged: (§1)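 Competitive FP read-out with 5 nM fluorescein-labeled tracer and 200 nM STAT5 or STAT6 protein in PBS pH 7.4 containing 0.01% BGG, 0.01% Tween-20 and 2 mM DTT. Plates were shaken 15 min, then equilibrated 1 h at room temperature; inhibition constants came from nonlinear curve fitting.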
A general note: Polarisation of emitted light reports the rotation of a fluorescent probe.

Another assay has as its target T2, STAT6 protein (Homo sapiens, UniProt P42226).
T2 sequence (P42226 1-847): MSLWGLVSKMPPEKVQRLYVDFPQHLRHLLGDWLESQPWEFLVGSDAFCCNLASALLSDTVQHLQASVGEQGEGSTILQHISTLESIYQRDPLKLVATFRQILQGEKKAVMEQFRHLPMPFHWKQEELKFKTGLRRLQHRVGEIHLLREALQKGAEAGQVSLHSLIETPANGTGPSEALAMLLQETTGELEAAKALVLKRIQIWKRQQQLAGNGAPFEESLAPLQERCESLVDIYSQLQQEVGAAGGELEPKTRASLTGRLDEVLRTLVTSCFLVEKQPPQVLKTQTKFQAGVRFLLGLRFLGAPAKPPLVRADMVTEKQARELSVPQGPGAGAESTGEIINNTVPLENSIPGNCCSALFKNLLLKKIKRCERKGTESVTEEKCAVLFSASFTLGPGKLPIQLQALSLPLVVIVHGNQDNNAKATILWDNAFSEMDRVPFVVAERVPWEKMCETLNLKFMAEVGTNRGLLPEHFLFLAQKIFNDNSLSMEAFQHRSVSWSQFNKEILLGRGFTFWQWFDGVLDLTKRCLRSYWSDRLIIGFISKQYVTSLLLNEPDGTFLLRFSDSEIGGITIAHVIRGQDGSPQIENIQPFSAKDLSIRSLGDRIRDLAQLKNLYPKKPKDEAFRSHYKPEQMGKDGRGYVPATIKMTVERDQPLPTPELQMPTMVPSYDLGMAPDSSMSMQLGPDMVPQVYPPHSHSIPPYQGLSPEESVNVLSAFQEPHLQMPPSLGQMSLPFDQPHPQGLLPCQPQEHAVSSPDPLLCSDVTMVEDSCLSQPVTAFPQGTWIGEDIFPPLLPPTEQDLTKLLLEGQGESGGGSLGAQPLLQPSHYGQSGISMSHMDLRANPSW
The assay is described as follows: Fluorescence polarization (FP) binding assay, STAT6. The settings on record: FP competition, 5 nM fluorescein-labeled tracer, 200 nM protein, PBS pH7.4; read-out: Binding STAT6. The procedure, abridged: as §1

pKi: −log10 of the molar value.

As to `Cc1ccccc1C1CN(C(=O)[C@@H]2CCCN2C(=O)[C@@H](NC(=O)c2cc3cc(C(F)(F)P(=O)(O)O)ccc3s2)C(C)(C)C)CCO1` (stereo partly drawn) [Compound 106, ((2-(((2S)-3,3-dimethyl-1-oxo-1-((2S)-2-(2-(o-tolyl)morpholine-4-carbonyl)pyrrolidin-1-yl)butan-2-yl)carbamoyl)benzo[b]thiophen-5-yl)difluoromethyl)phosphonic acid], the pKi at STAT5A is 5.00 to 6.00; on STAT6 protein, 6.00 to 7.00.

For the molecule `Cc1ccc(C2CN(C(=O)[C@@H]3CCCN3C(=O)[C@@H](NC(=O)c3cc4cc(C(F)(F)P(=O)(O)O)ccc4s3)C(C)(C)C)CCO2)c(C)c1` (stereo partly drawn) [Compound 107, ((2-(((2S)-1-((2S)-2-(2-(2,4-dimethylphenyl)morpholine-4-carbonyl)pyrrolidin-1-yl)-3,3-dimethyl-1-oxobutan-2-yl)carbamoyl)benzo[b]thiophen-5-yl)difluoromethyl)phosphonic acid], the pKi at STAT5A was under 5.00; at STAT6 protein it was 5.00 to 6.00.

Regarding `Cc1cc(C2CN(C(=O)[C@@H]3CCCN3C(=O)[C@@H](NC(=O)c3cc4cc(C(F)(F)P(=O)(O)O)ccc4s3)C(C)(C)C)CCO2)ccc1F` (stereo partly drawn) [Compound 108, (difluoro(2-(((2S)-1-((2S)-2-(2-(4-fluoro-3-methylphenyl)morpholine-4-carbonyl)pyrrolidin-1-yl)-3,3-dimethyl-1-oxobutan-2-yl)carbamoyl)benzo[b]thiophen-5-yl)methyl)phosphonic acid], the figures for the pKi on STAT5A and at STAT6 protein were under 5.00 and 5.00 to 6.00, respectively.

As to `CC(C)(C)[C@H](NC(=O)c1cc2cc(C(F)(F)P(=O)(O)O)ccc2s1)C(=O)N1CCC[C@H]1C(=O)N1CCOC(c2ccccc2F)C1` (stereo partly drawn) [Compound 109, (difluoro(2-(((2S)-1-((2S)-2-(2-(2-fluorophenyl)morpholine-4-carbonyl)pyrrolidin-1-yl)-3,3-dimethyl-1-oxobutan-2-yl)carbamoyl)benzo[b]thiophen-5-yl)methyl)phosphonic acid], the pKi at STAT5A was under 5.00; on STAT6 protein, 6.00 to 7.00.

With `CC(C)(C)[C@H](NC(=O)c1cc2cc(C(F)(F)P(=O)(O)O)ccc2s1)C(=O)N1CCC[C@H]1C(=O)N1CCOC(c2ccc(F)cc2F)C1` (stereo partly drawn) [Compound 110, ((2-(((2S)-1-((2S)-2-(2-(2,4-difluorophenyl)morpholine-4-carbonyl)pyrrolidin-1-yl)-3,3-dimethyl-1-oxobutan-2-yl)carbamoyl)benzo[b]thiophen-5-yl)difluoromethyl)phosphonic acid], the pKi on STAT5A is under 5.00; at STAT6 protein, 5.00 to 6.00.

Consider `CC(C)(C)[C@H](NC(=O)c1cc2cc(C(F)(F)P(=O)(O)O)ccc2s1)C(=O)N1CCC[C@H]1C(=O)N1CCOC(c2ccc(F)c(F)c2)C1` (stereo partly drawn) [Compound 111, ((2-(((2S)-1-((2S)-2-(2-(3,4-difluorophenyl)morpholine-4-carbonyl)pyrrolidin-1-yl)-3,3-dimethyl-1-oxobutan-2-yl)carbamoyl)benzo[b]thiophen-5-yl)difluoromethyl)phosphonic acid], for which the pKi on STAT5A is under 5.00; at STAT6 protein it was 6.00 to 7.00.

On to `CC(C)(C)[C@H](NC(=O)c1cc2cc(C(F)(F)P(=O)(O)O)ccc2s1)C(=O)N1CCC[C@H]1C(=O)N1CCOC(c2ccccc2Cl)C1` (stereo partly drawn) [Compound 112, ((2-(((2S)-1-((2S)-2-(2-(2-chlorophenyl)morpholine-4-carbonyl)pyrrolidin-1-yl)-3,3-dimethyl-1-oxobutan-2-yl)carbamoyl)benzo[b]thiophen-5-yl)difluoromethyl)phosphonic acid], for which the results for the pKi on STAT5A and at STAT6 protein were under 5.00 and 6.00 to 7.00, respectively.

Regarding `CC(C)(C)[C@H](NC(=O)c1cc2cc(C(F)(F)P(=O)(O)O)ccc2s1)C(=O)N1CCC[C@H]1C(=O)N1CCOC(c2ccc(F)c(Cl)c2)C1` (stereo partly drawn) [Compound 113, ((2-(((2S)-1-((2S)-2-(2-(3-chloro-4-fluorophenyl)morpholine-4-carbonyl)pyrrolidin-1-yl)-3,3-dimethyl-1-oxobutan-2-yl)carbamoyl)benzo[b]thiophen-5-yl)difluoromethyl)phosphonic acid], the pKi at STAT5A is 5.00 to 6.00; at STAT6 protein, 6.00 to 7.00.

`CC(C)(C)[C@H](NC(=O)c1cc2cc(C(F)(F)P(=O)(O)O)ccc2s1)C(=O)N1CCC[C@H]1C(=O)N1CCOC(c2ccc(Cl)c(Cl)c2)C1` (stereo partly drawn) [Compound 114, ((2-(((2S)-1-((2S)-2-(2-(3,4-dichlorophenyl)morpholine-4-carbonyl)pyrrolidin-1-yl)-3,3-dimethyl-1-oxobutan-2-yl)carbamoyl)benzo[b]thiophen-5-yl)difluoromethyl)phosphonic acid]: the pKi on STAT5A is 5.00 to 6.00; on STAT6 protein, 6.00 to 7.00.

With `CCOC(=O)C1CCN(C(=O)[C@@H]2CCCN2C(=O)[C@@H](NC(=O)c2cc3cc(C(F)(F)P(=O)(O)O)ccc3s2)C(C)(C)C)CC1c1ccccc1` (stereo partly drawn) [Compound 115, ((2-(((2S)-1-((2S)-2-(4-(ethoxycarbonyl)-3-phenylpiperidine-1-carbonyl)pyrrolidin-1-yl)-3,3-dimethyl-1-oxobutan-2-yl)carbamoyl)benzo[b]thiophen-5-yl)difluoromethyl)phosphonic acid], the pKi was under 5.00 on STAT5A and 5.00 to 6.00 at STAT6 protein.

Take `CC(=O)N1CC[C@H]2CC[C@@H](C(=O)N3CCOC[C@@H]3c3ccccc3)N2C(=O)[C@@H](NC(=O)c2cc3cc(C(F)(F)P(=O)(O)O)ccc3s2)C1` [Compound 120, ((2-(((5S,8S,10aR)-3-acetyl-6-oxo-8-((S)-3-phenylmorpholine-4-carbonyl)decahydropyrrolo[1,2-a][1,5]diazocin-5-yl)carbamoyl)benzo[b]thiophen-5-yl)difluoromethyl)phosphonic acid]: the figures for the pKi on STAT5A and at STAT6 protein were under 5.00 and 5.00 to 6.00, respectively.

Take `CC(=O)N1CC[C@H]2CC[C@@H](C(=O)N3CCOC[C@H]3c3ccccc3)N2C(=O)[C@@H](NC(=O)c2cc3cc(C(F)(F)P(=O)(O)O)ccc3s2)C1` [Compound 121, ((2-(((5S,8S,10aR)-3-acetyl-6-oxo-8-((R)-3-phenylmorpholine-4-carbonyl)decahydropyrrolo[1,2-a][1,5]diazocin-5-yl)carbamoyl)benzo[b]thiophen-5-yl)difluoromethyl)phosphonic acid]: the pKi on STAT5A is under 5.00; at STAT6 protein it was 5.00 to 6.00.

Regarding `CC(=O)NC(C)(C)[C@H](NC(=O)c1cc2cc(C(F)(F)P(=O)(O)O)ccc2s1)C(=O)N1CCC[C@H]1C(=O)N1CCO[C@H](c2ccccc2)C1` [Compound 122, ((2-(((S)-3-acetamido-3-methyl-1-oxo-1-((S)-2-((R)-2-phenylmorpholine-4-carbonyl)pyrrolidin-1-yl)butan-2-yl)carbamoyl)benzo[b]thiophen-5-yl)difluoromethyl)phosphonic acid], the pKi at STAT5A is under 5.00; at STAT6 protein, 6.00 to 7.00.

Regarding `CC(C)(C)[C@H](NC(=O)c1cc2cc(C(F)(F)P(=O)(O)O)ccc2s1)C(=O)N1CCC[C@H]1C(=O)N1CCC(C(=O)O)C(c2ccccc2)C1` (stereo partly drawn) [Compound 123, 1-(((S)-2-(5-(difluoro(phosphono)methyl)benzo [b]thiophene-2-carboxamido)-3,3-dimethylbutanoyl)-L-prolyl)-3-phenylpiperidine-4-carboxylic acid], the pKi at STAT5A is under 5.00; on STAT6 protein, 5.00 to 6.00.
